Measurements as given in the supplement of paper PMC10307832.

Key:
Test in all cases: relative viability (nuclei count vs DMSO), 5 days (fraction); higher = more cells survive
[1] = compound: CO[C@H]1C[C@@H]2CC[C@@H](C)[C@@](O)(O2)C(=O)C(=O)N2CCCC[C@H]2C(=O)O[C@H]([C@H](C)C[C@@H]2CC[C@@H](OCCO)[C@H](OC)C2)CC(=O)[C@H](C)/C=C(\C)[C@@H](O)[C@@H](OC)C(=O)[C@H](C)C[C@H](C)/C=C/C=C/C=C/1C [Everolimus]
Summary of the method: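 Vehicle-anchored 1536-well plates of lung cancer cell lines, held overnight at 37 °C, were pinned with five library-drug doses (not always all listed) spaced by √10. No medium change followed over the next 5 days, after which the cells were fixed, permeabilised and Hoechst-stained together and imaged at 4×. Nuclei were counted with MetaXpress, and viability is treated-well nuclei over vehicle-well nuclei, taken as a median across plates. Plates passed with control CV below 25% and at least one doubling.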

[2] = compound: CO[C@H]1C[C@@H]2CC[C@@H](C)[C@@](O)(O2)C(=O)C(=O)N2CCCC[C@H]2C(=O)O[C@H]([C@H](C)C[C@@H]2CC[C@@H](OCCO)[C@H](OC)C2)CC(=O)[C@H](C)/C=C(\C)[C@@H](O)[C@@H](OC)C(=O)[C@H](C)C[C@H](C)/C=C/C=C/C=C/1C [Everolimus] + CC(=O)Nc1cccc(-n2c(=O)n(C3CC3)c(=O)c3c(Nc4ccc(I)cc4F)n(C)c(=O)c(C)c32)c1 [Trametinib] (partner 0.02 µM)
Summary of the method: (§1)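 Relative viability equals treated-well nuclei counts divided by vehicle-well nuclei counts. Counts came from 4× images of lung cancer cell lines grown in 1536-well plates for 5 days after pin-tool dosing on the day after seeding. Dosing used one drug alone or a fixed anchor-drug dose plus five library-drug doses (not always all listed) in √10 steps, and values are medians of duplicate plates.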

[3] = compound: CO[C@H]1C[C@@H]2CC[C@@H](C)[C@@](O)(O2)C(=O)C(=O)N2CCCC[C@H]2C(=O)O[C@H]([C@H](C)C[C@@H]2CC[C@@H](OCCO)[C@H](OC)C2)CC(=O)[C@H](C)/C=C(\C)[C@@H](O)[C@@H](OC)C(=O)[C@H](C)C[C@H](C)/C=C/C=C/C=C/1C [Everolimus] + N=C(N)NC(=N)NCCc1ccccc1 [Phenformin] (partner 250 µM)
Summary of the method: as §1

[4] = compound: CO[C@H]1C[C@@H]2CC[C@@H](C)[C@@](O)(O2)C(=O)C(=O)N2CCCC[C@H]2C(=O)O[C@H]([C@H](C)C[C@@H]2CC[C@@H](OCCO)[C@H](OC)C2)CC(=O)[C@H](C)/C=C(\C)[C@@H](O)[C@@H](OC)C(=O)[C@H](C)C[C@H](C)/C=C/C=C/C=C/1C [Everolimus] + COc1cccc2cc(-c3nc([C@H]4CC[C@H](C(=O)O)CC4)n4ncnc(N)c34)[nH]c12 [OSI-027] (partner 0.5 µM)
Summary of the method: as §1

Cell Line | relative viability ([1]; 0.01 µM) | relative viability ([1]; 0.03162 µM) | relative viability ([1]; 0.1 µM) | relative viability ([1]; 0.3162 µM) | relative viability ([1]; 1 µM) | relative viability ([2]; first compound 0.01 µM) | relative viability ([2]; first compound 0.03162 µM) | relative viability ([2]; first compound 0.1 µM) | relative viability ([2]; first compound 0.3162 µM) | relative viability ([2]; first compound 1 µM) | relative viability ([3]; first compound 0.01 µM) | relative viability ([3]; first compound 0.03162 µM) | relative viability ([3]; first compound 0.1 µM) | relative viability ([3]; first compound 0.3162 µM) | relative viability ([3]; first compound 1 µM) | relative viability ([4]; first compound 0.01 µM) | relative viability ([4]; first compound 0.03162 µM) | relative viability ([4]; first compound 0.1 µM) | relative viability ([4]; first compound 0.3162 µM) | relative viability ([4]; first compound 1 µM)
LU99A | 0.557 | 0.644 | 0.626 | 0.591 | 0.679 | 0.35 | 0.268 | 0.298 | 0.314 | 0.354 | 0.665 | 0.662 | 0.605 | 0.503 | 0.587 | 0.234 | 0.243 | 0.245 | 0.248 | 0.241
LXF-289 | 1.09 | 1.07 | 1 | 1.03 | 1.05 | 0.625 | 0.537 | 0.574 | 0.508 | 0.528 | 0.526 | 0.541 | 0.507 | 0.574 | 0.512 | 0.654 | 0.604 | 0.529 | 0.572 | 0.576
NCI-H23 | 0.639 | 0.516 | 0.468 | 0.583 | 0.55 | 0.248 | 0.204 | 0.218 | 0.252 | 0.216 | 0.641 | 0.607 | 0.508 | 0.593 | 0.496 | 0.382 | 0.35 | 0.362 | 0.41 | 0.378
NCI-H322M | 0.688 | 0.728 | 0.733 | 0.694 | 0.722 | 0.474 | 0.504 | 0.495 | 0.463 | 0.484 | 0.647 | 0.658 | 0.629 | 0.714 | 0.701 | 0.425 | 0.501 | 0.473 | 0.433 | 0.495
NCI-H358 | 0.483 | 0.487 | 0.514 | 0.479 | 0.525 | 0.105 | 0.102 | 0.114 | 0.129 | 0.109 | 0.208 | 0.25 | 0.227 | 0.234 | 0.298 | 0.347 | 0.337 | 0.336 | 0.34 | 0.378
NCI-H441 | 0.898 | 0.961 | 0.907 | 0.984 | 0.952 | 0.373 | 0.306 | 0.327 | 0.357 | 0.29 | 0.798 | 0.605 | 0.585 | 0.772 | 0.666 | 0.557 | 0.479 | 0.474 | 0.585 | 0.358
NCI-H460 | 0.951 | 1.03 | 0.957 | 0.921 | 0.939 | 0.082 | 0.101 | 0.114 | 0.0573 | 0.124 | 0.492 | 0.57 | 0.588 | 0.538 | 0.315 | 0.389 | 0.503 | 0.304 | 0.314 | 0.333
NCI-H520 | 0.436 | 0.413 | 0.401 | 0.326 | 0.371 | 0.292 | 0.286 | 0.245 | 0.249 | 0.256 | 0.242 | 0.255 | 0.242 | 0.207 | 0.244 | 0.21 | 0.179 | 0.218 | 0.185 | 0.193
NCI-H522 | 0.722 | 0.655 | 0.601 | 0.731 | 0.813 | 0.634 | 0.55 | 0.527 | 0.456 | 0.635 | 0.588 | 0.527 | 0.549 | 0.51 | 0.503 | 0.658 | 0.501 | 0.617 | 0.621 | 0.591
NCI-H596 | 0.699 | 0.628 | 0.54 | 0.697 | 0.588 | 0.613 | 0.507 | 0.497 | 0.525 | 0.575 | 0.494 | 0.505 | 0.396 | 0.513 | 0.554 | 0.506 | 0.471 | 0.417 | 0.45 | 0.457
NCI-H647 | 0.644 | 0.521 | 0.539 | 0.535 | 0.65 | 0.258 | 0.318 | 0.288 | 0.252 | 0.293 | 0.317 | 0.395 | 0.338 | 0.36 | 0.537 | 0.363 | 0.401 | 0.343 | 0.449 | 0.489
NCI-H650 | 0.7 |  | 0.783 | 0.566 | 0.583 | 1 | 0.687 | 0.664 | 0.593 | 0.497 | 0.423 |  | 0.431 | 0.364 | 0.294 | 0.372 |  | 0.446 | 0.392 | 0.363
NCI-H661 | 0.812 | 0.814 | 0.786 | 0.746 | 0.667 | 0.407 | 0.376 | 0.343 | 0.409 | 0.318 | 0.253 | 0.259 | 0.258 | 0.271 | 0.281 | 0.471 | 0.44 | 0.433 | 0.4 | 0.511
NCI-H727 | 0.67 | 0.537 | 0.518 | 0.608 | 0.552 | 0.433 | 0.385 | 0.337 | 0.363 | 0.342 | 0.462 | 0.457 |  | 0.485 | 0.368 | 0.425 | 0.392 | 0.467 | 0.345 | 0.444
